Test results: patent US6593363B1, “Diterpene derivatives and anti-inflammatory analgesic agents comprising the same” (Sae Han Pharm. Co., Ltd., priority 1998, dated 2003)

Assays:
[1] = biological target: T1, COX-2 (Ovis aries, UniProt P79208); assay: Inhibition of PGE2 synthesis by inhibiting COX-2 activity (in vitro, TLC/autoradiography); type: biochemical, sheep; conditions: for IC50: 3 Unit COX-2 from sheep placenta, [1-14C] arachidonic acid, 37° C. for 20 min
T1 construct: 3 Unit of COX-2 (Layman chemical) that is separated from sheep placenta and purified; purchased Layman chemical (sic); host or cells: sheep placenta (tissue-derived)
T1 sequence (P79208 17-603): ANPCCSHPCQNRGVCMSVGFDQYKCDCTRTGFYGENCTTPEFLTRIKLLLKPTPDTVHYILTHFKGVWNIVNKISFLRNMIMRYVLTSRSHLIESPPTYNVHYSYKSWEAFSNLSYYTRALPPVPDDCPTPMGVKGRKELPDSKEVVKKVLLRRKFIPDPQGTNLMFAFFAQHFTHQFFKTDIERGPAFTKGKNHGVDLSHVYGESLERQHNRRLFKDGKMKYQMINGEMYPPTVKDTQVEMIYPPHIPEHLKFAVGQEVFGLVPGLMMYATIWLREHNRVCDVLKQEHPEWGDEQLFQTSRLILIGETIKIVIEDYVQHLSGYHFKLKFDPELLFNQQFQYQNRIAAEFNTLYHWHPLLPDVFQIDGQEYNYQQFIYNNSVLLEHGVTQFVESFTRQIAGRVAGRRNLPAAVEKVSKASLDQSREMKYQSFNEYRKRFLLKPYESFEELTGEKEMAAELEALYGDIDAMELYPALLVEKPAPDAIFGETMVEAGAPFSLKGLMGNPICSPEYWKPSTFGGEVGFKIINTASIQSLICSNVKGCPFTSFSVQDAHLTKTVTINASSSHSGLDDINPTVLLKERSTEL
Experimental: The inhibition effect of the novel derivatives against PGE2 synthesis was tested in vitro. […] The novel derivatives were synthesized from (−)-pimara-9(11), 15-diene-4-carboxylic acid, which is a diterpene compound isolated from root-bark of Acanthopanax Koreanum.
The mixture was stranded on ice for 5 min. To the mixture, the sample for assay of COX-2 activity was added, and then incubated on ice for 10 min. After preincubation, 0.02 μCi of [1-^14C] arachidonic acid, as an substrate, was added, and reacted at 37° C. for 20 min. For the termination of the reaction, 10 μl of 2 M HCl was added. Prostaglandin produced was extracted with ethylether twice. Two ethylether layers were integrated, and the solvent was evaporated at a 37° C. water-bath. […] PGE2 part of TLC plate developed was observed using autoradiography (PACKARD). The amount of PGE2 decreased by the sample was compared with reference, and then COX-2 inhibition activity of the sample was determined.

[2] = test system: Raw 264.7; assay: Cytotoxicity, MTT assay; type: cell-based; conditions: Raw 264.7, MTT assay at 48 hours after sample treatment
Experimental: (§1) To investigate the utility of diterpene derivatives synthesized, cytotoxicities of some derivatives were tested.
(§2) The cytotoxicity was tested using Raw 264.7. The cytotoxicity and non-cytotoxicity were judged by performing MTT assay at 48 hours after sample treatment.

[3] = test system: mono-arthritis model, tibeo-calcanean joint; assay: Anti-inflammatory activity against acute inflammation, adjuvant mono-arthritis model (edema index); type: in vivo; conditions: rat, 5 mg/kg intraperitoneal; for edema index size: 1 hour after inducing inflammation; for effect on edema index compared with koprofen or indometacin: after 4 hours
Experimental: For some of the natural single material and synthetic derivatives thereof, of which the inhibition effect against PGE2 synthesis was tested in Experimental example 1, the anti-inflammatory activity against arthritis was tested using a mono-arthritis model as follows:
Derivatives synthesized were dissolved in the mixed solvent of ethanol: Tween 80: saline (1:1:8), and then administered by intrapertioneal injection. Referring to the result of the in vitro test, 5 mg/kg was used as a dose for primary screening test. Adjuvant that was dissolved in mineral oil and then sterilized, was administered into tibeo-calcanean joint of right crus posterius of rat to induce arthritis. The injection volume is controlled to be contained M. butyricum 100 μg/50 μl.
Edema degree was determined primarily, and the degree was used as an index of inflammation. The degree was determined by the estimation method for section area of tibeo-calcanean joint part. Width and length measurements of the joint part were taken according to time schedule upon inducing inflammation, and the width multiplied by the length. The multiplied value was then used as a section area index (SAI). On the basis of the section area index, edema index was calculated as follows: […]
(SAI of inflammatory joint−SAI of normal joint)
Each index was determined at 1, 4 and 24 hours after adjuvant injection. The index value determined at the same part before adjuvant injection was used as one of normal joint.
Unpaired t-test or ANOVA using Fisher PLSD verified the statistical significance.

[4] = Cytotoxicity, MTT assay; type: cell-based; conditions: mouse, Raw 264.7 cells; Raw 264.7, MTT assay at 48 hours after sample treatment
Experimental: as §1, §2

Row | Compound | IC50 [1] | further results
1 | C=CC1(C)CC=C2C(CCC3C(C)(CCC(=O)NS(=O)(=O)c4ccc(I)cc4)CCCC23C)C1 (stereo not drawn) [Example 40, 4-(N-pipsyl)carbamoylethyl-(−)-pimara-9(11),15-diene] | 60.7 µM | 
2 | CC1(CCO)CC(O)C2C(CCC3C(C)(C(=O)O)CCCC23C)C1 (stereo not drawn) [Example 19, 11,16-Dihydroxy-(−)-pimara-4-carboxylic acid] | > 2000 µM | IC50 [2]: 152 µM
3 | C=CC1(C)CC=C2C(CCC3C(C)(CO)CCCC23C)C1 (stereo not drawn) [Example 1, 4-Hydroxymethyl-(−)-pimara-9(11),15-diene] | > 2000 µM | 
4 | 16-Hydroxy-(−)-pimara-4-carboxylic acid [Example 16] |  | inhibition effect against PGE2 synthesis (in words) [1]: excellent inhibition effect; IC50 [2]: 137 µM
5 | C=C[C@@]1(C)CC=C2[C@@H](CC[C@@H]3[C@](C)(CCC(=O)O)CCC[C@@]23C)C1 [Example 9, 4-Carboxyethyl-(−)-pimara-9(11),15-diene] | 105 µM | inhibition effect against PGE2 synthesis (in words) [1]: excellent inhibition effect; edema index size [3]: not more then half; effect on edema index compared with koprofen or indometacin [3]: even superior effect; IC50 at 48 h [4]: 114 µM
6 | C=C[C@@]1(C)CC=C2C(CCC3[C@@]2(C)CCC[C@@]3(C)/C=C/C(=O)O)C1 (stereo partly drawn) [Example 7, 4-Carboxyvinyl-(−)-pimara-9(11),15-diene] | 69.7 µM | IC50 at 48 h [4]: 139 µM
7 | C[C@]1(CCO)CC=C2C(CCC3[C@](C)(C(=O)O)CCC[C@@]23C)C1 (stereo partly drawn) [Example 15, 16-Hydroxy-(−)-pimara-9(11)-en-4-carboxylic acid] | > 2000 µM | IC50 at 48 h [4]: 139 µM
8 | C=CC1(C)CC=C2C(CCC3C(C)(C=CC=CC(=O)NS(=O)(=O)c4ccc(I)cc4)CCCC23C)C1 (stereo not drawn) [Example 43, 4-(N-Pipsyl)Carbamoylbutadienyl-(−)-Pimara-9(11),15-Diene] | 25.6 µM | 
9 | C=CC1(C)CC=C2C(CCC3C(C)(CC(=O)NS(=O)(=O)c4ccc(I)cc4)CCCC23C)C1 (stereo not drawn) [Example 38, 4-(N-pipsyl)carbamoylmethyl-(−)-pimara-9(11),15-diene] | 72.2 µM | 
10 | C=CC1(C)CC=C2C(CCC3C(C)(C(=O)NO)CCCC23C)C1 (stereo not drawn) [Example 14, 4-(N-hydroxy)carbaomyl-(−)-pimara-9(11), 15-diene] | 819 µM | 
11 | C=CC1(C)CC=C2C(CCC3C(C)(CCC(=O)NS(C)(=O)=O)CCCC23C)C1 (stereo not drawn) [Example 41, 4-(N-methanesulfonyl)carbamoylethyl-(−)-pimara-9(11),15-diene] | 180 µM | 
12 | C=CC1(C)CC=C2C(CCC3C(C)(C(=O)NC)CCCC23C)C1 (stereo not drawn) [Example 12, 4-(N-methyl)carbamoyl-(−)-pimara-9(11), 15-diene] | > 2000 µM | 
13 | C=C[C@@]1(C)CC=C2C(CCC3[C@](C)(C(=O)NN)CCC[C@@]23C)C1 (stereo partly drawn) [Example 13, 4-Carbazoyl-(−)-pimara-9(11), 15-diene] | 41.9 µM | 
14 | C=CC1(C)CC=C2C(CCC3C(C)(CC(=O)O)CCCC23C)C1 (stereo not drawn) [Example 5, 4-Carboxymethyl-(−)-pimara-9(11),15-diene] | 82.3 µM | inhibition effect against PGE2 synthesis (in words) [1]: excellent inhibition effect; edema index size [3]: not more then half; effect on edema index compared with koprofen or indometacin [3]: even superior effect; IC50 [2]: 140 µM
15 | C=C[C@@]1(C)CC=C2C(CCC3[C@](C)(C(N)=O)CCC[C@@]23C)C1 (stereo partly drawn) [Example 11, 4-Carbamoyl-(−)-pimara-9(11), 15-diene] | > 2000 µM | 
16 | C=CC1(C)CC=C2C(CCC3C(C)(C=CC(=O)O)CCCC23C)C1 (stereo not drawn) [Example 7, 4-Carboxyvinyl-(−)-pimara-9(11),15-diene] |  | inhibition effect against PGE2 synthesis (in words) [1]: excellent inhibition effect

Second part, led by results:

Row | IC50 [1] | Compound | further results
17 | 63.8 µM | C=CC1(C)CC=C2C(CCC3C(C)(CCC=CC(=O)O)CCCC23C)C1 (stereo not drawn) [Example 33, 4-Carboxyhomoallyl-(−)-pimara-9(11),15-diene] | 
18 | 790 µM | C=C[C@@]1(C)CC=C2C(CCC3[C@](C)(C(=O)O)CCC[C@@]23C)C1 (single isomer, unassigned; (-)) [Natural Component, (−)-pimara-9(11),15-diene-4-carboxylic acid, reference compound] | 
19 | > 2000 µM | CON=CCC1(C)CC=C2C(CCC3C(C)(C(=O)O)CCCC23C)C1 (stereo not drawn) [Example 55, 16-Methoxyimino-(−)-Pimara-9(11)-En-4-Carboxylic Acid] | 
20 | > 2000 µM | 16-Methoxyethoxymethoxy-(−)-Pimara-9(11)-En-4-Carboxylic Acid [Example 52] | 
21 | > 2000 µM | COCC[C@@]1(C)CC=C2[C@@H](CC[C@@H]3[C@](C)(C(=O)O)CCC[C@@]23C)C1 [Example 46, 16-Methoxy-(−)-Pimara-9(11)-En-4-Carboxylic Acid] | 
22 | 1420 µM | CC(=O)OCCC1(C)CC=C2C(CCC3C(C)(C(=O)O)CCCC23C)C1 (stereo not drawn) [Example 48, 16-Acetyloxy-(−)-Pimara-9(11)-En-4-Carboxylic Acid] | 
23 | > 2000 µM | COCOCC[C@@]1(C)CC=C2[C@@H](CC[C@@H]3[C@](C)(C(=O)O)CCC[C@@]23C)C1 [Example 50, 16-Methoxymethoxy-(−)-Pimara-9(11)-En-4-Carboxylic Acid] | 
24 | > 2000 µM | 13-Isoxazolinyl-(−)-pimara-9(11)-en-4-carboxylic acid [Example 21] | IC50 [2]: 250 µM
25 | 26.8 µM | C=C[C@@]1(C)CC=C2C(CCC3[C@@]2(C)CCC[C@@]3(C)/C=C/C=C/C(=O)O)C1 (stereo partly drawn) [Example 29, 4-Carboxybutadienyl-(−)-pimara-9(11),15-diene] | 
